Source: ChEMBL document CHEMBL5291721, “A preclinical secondary pharmacology resource illuminates target-adverse drug reaction associations of marketed drugs” (Nat Commun, 2023)

Legend:
Endothelin-1 receptor = target: T1, Endothelin-1 receptor (Homo sapiens, UniProt P25101)
T1 sequence (P25101 whole entry): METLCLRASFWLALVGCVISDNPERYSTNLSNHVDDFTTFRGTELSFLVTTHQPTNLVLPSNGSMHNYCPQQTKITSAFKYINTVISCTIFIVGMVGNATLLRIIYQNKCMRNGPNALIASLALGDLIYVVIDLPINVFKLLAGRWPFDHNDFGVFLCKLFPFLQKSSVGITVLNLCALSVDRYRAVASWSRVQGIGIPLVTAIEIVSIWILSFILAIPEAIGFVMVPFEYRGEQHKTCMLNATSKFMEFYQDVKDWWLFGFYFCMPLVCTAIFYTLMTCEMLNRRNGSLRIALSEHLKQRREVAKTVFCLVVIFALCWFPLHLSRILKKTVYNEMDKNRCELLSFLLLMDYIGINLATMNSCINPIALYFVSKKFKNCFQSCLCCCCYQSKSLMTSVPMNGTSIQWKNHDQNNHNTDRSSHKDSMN

[1] = target: T2, Gastrin/cholecystokinin type B receptor (Homo sapiens, UniProt P32239)
T2 sequence (P32239 whole entry): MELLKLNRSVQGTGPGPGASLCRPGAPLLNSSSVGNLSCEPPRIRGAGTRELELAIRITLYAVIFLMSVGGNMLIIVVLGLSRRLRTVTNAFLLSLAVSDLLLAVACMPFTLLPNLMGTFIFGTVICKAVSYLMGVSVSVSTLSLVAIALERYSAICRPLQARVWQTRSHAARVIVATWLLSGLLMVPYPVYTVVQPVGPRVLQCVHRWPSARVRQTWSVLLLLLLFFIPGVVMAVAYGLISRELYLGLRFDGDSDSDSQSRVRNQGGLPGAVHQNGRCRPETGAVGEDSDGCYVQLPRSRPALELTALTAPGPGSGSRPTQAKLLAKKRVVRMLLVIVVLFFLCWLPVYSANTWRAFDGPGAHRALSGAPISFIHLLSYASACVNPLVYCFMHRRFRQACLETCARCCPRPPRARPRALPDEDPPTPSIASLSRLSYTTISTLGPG

Glucocorticoid receptor = target: T3, Glucocorticoid receptor (Homo sapiens, UniProt P04150)
T3 sequence (P04150 whole entry): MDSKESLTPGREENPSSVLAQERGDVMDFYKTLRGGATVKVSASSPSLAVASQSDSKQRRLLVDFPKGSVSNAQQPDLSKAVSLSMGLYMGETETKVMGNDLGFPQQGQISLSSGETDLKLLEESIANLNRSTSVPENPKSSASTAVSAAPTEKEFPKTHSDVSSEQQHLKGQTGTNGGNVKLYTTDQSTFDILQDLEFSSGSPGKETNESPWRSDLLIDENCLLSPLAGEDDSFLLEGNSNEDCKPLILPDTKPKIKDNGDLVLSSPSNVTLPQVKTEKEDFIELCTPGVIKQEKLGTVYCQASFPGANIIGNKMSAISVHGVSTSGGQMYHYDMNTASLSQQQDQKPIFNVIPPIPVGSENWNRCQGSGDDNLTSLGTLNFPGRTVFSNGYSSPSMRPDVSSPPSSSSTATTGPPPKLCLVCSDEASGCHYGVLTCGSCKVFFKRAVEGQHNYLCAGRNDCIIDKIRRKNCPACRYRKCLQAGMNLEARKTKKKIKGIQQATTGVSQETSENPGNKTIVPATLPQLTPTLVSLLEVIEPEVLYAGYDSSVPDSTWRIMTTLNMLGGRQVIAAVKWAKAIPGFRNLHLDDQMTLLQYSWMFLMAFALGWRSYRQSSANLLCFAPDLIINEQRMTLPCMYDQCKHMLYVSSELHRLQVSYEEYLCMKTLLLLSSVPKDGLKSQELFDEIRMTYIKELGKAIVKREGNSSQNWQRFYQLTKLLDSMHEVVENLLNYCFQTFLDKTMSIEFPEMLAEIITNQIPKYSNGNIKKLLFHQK

[2] = target: 3',5'-cyclic-AMP phosphodiesterase 4D (Homo sapiens, UniProt Q08499); type: functional
Sequence of 3',5'-cyclic-AMP phosphodiesterase 4D (Q08499 whole entry): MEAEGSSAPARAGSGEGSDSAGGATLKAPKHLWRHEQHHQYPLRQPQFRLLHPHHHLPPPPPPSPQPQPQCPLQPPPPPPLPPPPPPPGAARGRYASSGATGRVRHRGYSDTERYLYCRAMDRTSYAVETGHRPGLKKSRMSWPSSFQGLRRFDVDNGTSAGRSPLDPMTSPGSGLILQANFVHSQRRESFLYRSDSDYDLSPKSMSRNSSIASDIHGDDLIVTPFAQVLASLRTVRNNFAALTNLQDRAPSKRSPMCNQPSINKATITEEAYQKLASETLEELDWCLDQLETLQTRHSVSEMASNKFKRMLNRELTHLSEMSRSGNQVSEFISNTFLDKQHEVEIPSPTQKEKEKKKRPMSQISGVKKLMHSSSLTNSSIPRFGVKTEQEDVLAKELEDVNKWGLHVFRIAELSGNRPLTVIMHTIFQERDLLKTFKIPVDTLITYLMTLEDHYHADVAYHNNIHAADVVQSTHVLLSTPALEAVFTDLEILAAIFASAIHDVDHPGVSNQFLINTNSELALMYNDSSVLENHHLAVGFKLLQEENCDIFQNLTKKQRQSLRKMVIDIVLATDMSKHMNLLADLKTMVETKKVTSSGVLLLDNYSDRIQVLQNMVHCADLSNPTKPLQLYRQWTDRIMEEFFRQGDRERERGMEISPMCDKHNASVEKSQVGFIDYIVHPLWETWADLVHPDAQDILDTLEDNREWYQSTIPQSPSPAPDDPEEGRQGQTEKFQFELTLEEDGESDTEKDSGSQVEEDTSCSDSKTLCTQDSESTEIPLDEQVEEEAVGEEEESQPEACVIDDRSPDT

[3] = target: Neuronal acetylcholine receptor subunit alpha-4 (Homo sapiens, UniProt P43681)
Sequence of Neuronal acetylcholine receptor subunit alpha-4 (P43681 whole entry): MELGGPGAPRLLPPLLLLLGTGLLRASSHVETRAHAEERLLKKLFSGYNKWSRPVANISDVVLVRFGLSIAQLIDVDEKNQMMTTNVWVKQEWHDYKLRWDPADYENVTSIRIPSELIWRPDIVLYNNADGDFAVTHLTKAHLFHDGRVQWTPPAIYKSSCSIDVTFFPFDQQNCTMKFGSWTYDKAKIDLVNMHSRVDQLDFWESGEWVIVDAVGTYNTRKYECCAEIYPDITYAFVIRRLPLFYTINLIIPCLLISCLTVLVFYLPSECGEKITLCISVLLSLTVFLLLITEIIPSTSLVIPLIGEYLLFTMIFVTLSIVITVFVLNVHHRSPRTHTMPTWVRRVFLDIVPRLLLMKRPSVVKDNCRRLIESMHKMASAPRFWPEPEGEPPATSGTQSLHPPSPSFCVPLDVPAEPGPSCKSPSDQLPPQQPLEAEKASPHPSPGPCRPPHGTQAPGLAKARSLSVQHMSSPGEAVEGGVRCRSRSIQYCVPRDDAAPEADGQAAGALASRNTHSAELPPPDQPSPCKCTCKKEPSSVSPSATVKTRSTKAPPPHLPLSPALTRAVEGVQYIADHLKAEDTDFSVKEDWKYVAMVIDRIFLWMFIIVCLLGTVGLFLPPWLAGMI

Thromboxane A2 receptor = target: T4, Thromboxane A2 receptor (Homo sapiens, UniProt P21731)
T4 sequence (P21731 whole entry): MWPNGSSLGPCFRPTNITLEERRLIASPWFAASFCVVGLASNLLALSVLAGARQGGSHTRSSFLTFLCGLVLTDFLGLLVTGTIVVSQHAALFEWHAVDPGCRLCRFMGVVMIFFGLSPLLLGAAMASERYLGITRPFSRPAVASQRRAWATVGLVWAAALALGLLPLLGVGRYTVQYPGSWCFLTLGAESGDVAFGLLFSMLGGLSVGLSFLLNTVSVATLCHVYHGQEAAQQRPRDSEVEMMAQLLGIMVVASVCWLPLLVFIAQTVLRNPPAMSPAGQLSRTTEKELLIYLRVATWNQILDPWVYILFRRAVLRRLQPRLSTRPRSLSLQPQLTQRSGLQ

Adenosine receptor A2a = Adenosine receptor A2a (Homo sapiens, UniProt P29274)
Sequence of Adenosine receptor A2a (P29274 whole entry): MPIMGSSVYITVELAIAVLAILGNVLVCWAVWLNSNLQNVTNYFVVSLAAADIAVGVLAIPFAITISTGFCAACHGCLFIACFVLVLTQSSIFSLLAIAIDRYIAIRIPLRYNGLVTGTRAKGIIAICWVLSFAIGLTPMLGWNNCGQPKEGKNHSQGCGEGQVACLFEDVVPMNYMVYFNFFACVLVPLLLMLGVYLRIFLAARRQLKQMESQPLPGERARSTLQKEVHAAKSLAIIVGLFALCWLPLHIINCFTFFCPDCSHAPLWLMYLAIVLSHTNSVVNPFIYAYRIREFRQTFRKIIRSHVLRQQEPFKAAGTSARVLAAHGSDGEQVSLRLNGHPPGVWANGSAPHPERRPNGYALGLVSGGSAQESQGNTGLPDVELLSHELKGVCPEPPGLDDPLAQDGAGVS

[4] = target: Sodium-dependent dopamine transporter (Homo sapiens, UniProt Q01959)
Sequence of Sodium-dependent dopamine transporter (Q01959 whole entry): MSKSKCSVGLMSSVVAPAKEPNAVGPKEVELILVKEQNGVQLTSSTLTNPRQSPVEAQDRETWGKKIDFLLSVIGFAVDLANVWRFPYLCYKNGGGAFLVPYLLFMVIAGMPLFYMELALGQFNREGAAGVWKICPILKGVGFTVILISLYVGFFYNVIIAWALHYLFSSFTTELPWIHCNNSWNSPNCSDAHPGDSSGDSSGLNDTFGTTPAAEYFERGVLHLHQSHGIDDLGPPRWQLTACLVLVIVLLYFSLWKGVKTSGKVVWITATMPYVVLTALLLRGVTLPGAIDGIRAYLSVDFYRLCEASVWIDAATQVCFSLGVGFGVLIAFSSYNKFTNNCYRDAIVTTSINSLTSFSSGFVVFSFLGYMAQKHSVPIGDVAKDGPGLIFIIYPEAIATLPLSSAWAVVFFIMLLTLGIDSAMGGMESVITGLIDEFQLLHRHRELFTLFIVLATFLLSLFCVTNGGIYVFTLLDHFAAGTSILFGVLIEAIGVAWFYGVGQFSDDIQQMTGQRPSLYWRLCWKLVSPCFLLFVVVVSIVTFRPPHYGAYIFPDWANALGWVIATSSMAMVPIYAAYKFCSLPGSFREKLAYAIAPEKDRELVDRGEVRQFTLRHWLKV

[5] = target: T5, Alpha-2B adrenergic receptor (Homo sapiens, UniProt P18089)
T5 sequence (P18089 whole entry): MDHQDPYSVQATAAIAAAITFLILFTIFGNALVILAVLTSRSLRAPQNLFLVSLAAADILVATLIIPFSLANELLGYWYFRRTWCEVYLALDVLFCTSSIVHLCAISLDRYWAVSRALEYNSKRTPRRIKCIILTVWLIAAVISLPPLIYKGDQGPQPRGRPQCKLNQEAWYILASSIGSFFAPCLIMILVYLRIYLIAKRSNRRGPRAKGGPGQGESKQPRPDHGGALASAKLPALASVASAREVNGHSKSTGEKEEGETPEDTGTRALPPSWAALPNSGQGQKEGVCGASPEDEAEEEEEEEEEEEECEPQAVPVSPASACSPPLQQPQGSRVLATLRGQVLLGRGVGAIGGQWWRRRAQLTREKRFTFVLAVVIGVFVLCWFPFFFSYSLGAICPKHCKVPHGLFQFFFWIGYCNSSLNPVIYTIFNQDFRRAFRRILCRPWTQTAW

[6] = target: 5-hydroxytryptamine receptor 2B (Homo sapiens, UniProt P41595); type: functional, cell-based
Sequence of 5-hydroxytryptamine receptor 2B (P41595 whole entry): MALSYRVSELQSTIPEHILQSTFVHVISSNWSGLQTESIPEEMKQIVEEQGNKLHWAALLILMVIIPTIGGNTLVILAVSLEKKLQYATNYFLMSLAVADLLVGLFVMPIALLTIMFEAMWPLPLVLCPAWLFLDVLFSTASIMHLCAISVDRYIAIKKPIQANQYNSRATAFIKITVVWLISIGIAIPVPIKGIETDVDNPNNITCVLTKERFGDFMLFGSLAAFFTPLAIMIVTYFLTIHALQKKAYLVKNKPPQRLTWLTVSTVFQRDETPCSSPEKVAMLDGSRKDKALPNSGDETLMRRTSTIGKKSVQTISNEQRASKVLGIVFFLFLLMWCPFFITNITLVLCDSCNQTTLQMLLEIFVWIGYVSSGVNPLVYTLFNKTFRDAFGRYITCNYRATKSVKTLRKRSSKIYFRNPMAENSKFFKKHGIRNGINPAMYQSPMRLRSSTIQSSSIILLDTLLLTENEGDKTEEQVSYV
Also: assay procedure not described here.

| Compound | AC50 (Endothelin-1 receptor) | AC50 [1] | AC50 (Glucocorticoid receptor) | AC50 [2] | AC50 [3] | AC50 (Thromboxane A2 receptor) | AC50 (Adenosine receptor A2a) | AC50 [4] | AC50 [5] | AC50 [6] |
| --- | --- | --- | --- | --- | --- | --- | --- | --- | --- | --- |
| CCNC(C)Cc1cccc(C(F)(F)F)c1 (stereo unspecified) [FENFLURAMINE] | > 30 µM | > 30 µM | > 30 µM | > 30 µM | > 10 µM | > 30 µM | > 30 µM | – | – | – |
| CCC1(C2=CCCCCC2)C(=O)NC(=O)NC1=O [HEPTABARBITAL] | – | – | > 10 µM | > 30 µM | > 10 µM | > 10 µM | > 10 µM | > 10 µM | > 10 µM | > 10 µM |
| O=C(CCCCC(=O)Nc1c(I)cc(I)c(C(=O)O)c1I)Nc1c(I)cc(I)c(C(=O)O)c1I [IODIPAMIDE] | – | – | > 10 µM | > 30 µM | > 10 µM | > 10 µM | > 10 µM | > 10 µM | > 10 µM | > 10 µM |
| CN1CC[C@]23CCCC[C@H]2[C@H]1Cc1ccc(O)cc13 [LEVORPHANOL] | – | – | – | > 30 µM | > 10 µM | > 10 µM | > 10 µM | > 30 µM | > 30 µM | > 10 µM |
| C[C@]12CCC(=O)C=C1CC[C@@H]1[C@@H]2CC[C@@]2(C)[C@H]1CC[C@]2(C)O [METHYLTESTOSTERONE] | > 30 µM | > 30 µM | 0.44 µM | > 30 µM | > 30 µM | > 30 µM | > 30 µM | > 30 µM | – | 22 µM |
| NC(=O)C[S+]([O-])C(c1ccccc1)c1ccccc1 (stereo unspecified) [MODAFINIL] | > 30 µM | > 30 µM | > 30 µM | > 30 µM | > 10 µM | > 30 µM | > 30 µM | – | – | > 10 µM |
| COc1c(C)c2c(c(O)c1C/C=C(\C)CCC(=O)OCCN1CCOCC1)C(=O)OC2 [MYCOPHENOLATE MOFETIL] | > 30 µM | > 30 µM | > 30 µM | > 30 µM | > 30 µM | > 30 µM | > 30 µM | > 30 µM | – | > 30 µM |
| C#CCN[C@@H]1CCc2ccccc21 [RASAGILINE] | – | > 30 µM | – | > 30 µM | > 30 µM | > 30 µM | > 30 µM | > 30 µM | 8.79 µM | > 30 µM |
| C1COC(NC(C2CC2)C2CC2)=N1 [RILMENIDINE] | – | > 30 µM | – | > 30 µM | > 10 µM | > 30 µM | > 30 µM | > 30 µM | 7.5 µM | > 10 µM |
| CC[C@]1(O)C[C@@H]2CN(CCc3c([nH]c4ccccc34)[C@@](C(=O)OC)(c3cc4c(cc3OC)N(C)[C@H]3[C@@](O)(C(N)=O)[C@H](O)[C@]5(CC)C=CCN6CC[C@]43[C@@H]65)C2)C1 [VINDESINE] | > 30 µM | > 30 µM | > 30 µM | > 30 µM | > 30 µM | > 30 µM | > 30 µM | > 30 µM | – | > 30 µM |
